Key:
LNCaP tumour xenograft = test: Biodistribution in LNCaP-tumour-bearing mice; type: in vivo; conditions: LNCaP-tumour bearing CD-1 nu/nu mice, 1 h p.i.
Protocol: All animal experiments were conducted in accordance with general animal welfare regulations in Germany (Deutsches Tierschutzgesetz, approval #55.2-1-54-2532-71-13). The prostate cancer cell line LNCaP was suspended 1/1 in serum-free medium and Matrigel (BD Biosciences, Germany) and approximately 10^7 cells in 200 μL were inoculated subcutaneously on the right shoulder of 6 to 8 weeks old CD-1 nu/nu mice (Charles River Laboratories). Tumours were grown for 2 to 4 weeks (males) and 4 to 6 weeks (females) to reach 4 to 8 mm in diameter.
Biodistribution: The ^68Ga-labelled PSMA ligands (approximately 7 to 15 MBq, 0.1 to 0.2 nmol) were injected into the tail vein of isoflurane anesthetized animals. The organ distribution was examined 1 h p.i. and quantified in a γ-counter.
A comparison of the biodistribution of compounds ^68Ga-11, ^68Ga-12 and the reference [^68Ga]HBED-CC-Ahx-KuE in LNCaP-tumour-bearing CD-1 nu/nu mice (1 h p.i.) is shown in Figure 7.

[1] = tested on: PSMA-expressing LNCaP cells; test: Internalization studies / cell binding in LNCaP cells; type: cell-based, human; conditions: 68Ga compounds, c = 0.2 nM, 37°C, 1 h, 125,000 cells/well, corrected for unspecific binding
Protocol: Cell culture: PSMA^+ LNCaP cells (CLS: 300265) were grown in DMEM/Nutrition Mix F-12 with Glutamax-I (1:1) (Invitrogen, Life Technologies, Darmstadt, Germany) supplemented with 10% FCS. Cultures were maintained at 37°C in a 5% CO2/humidified air atmosphere. One day prior to the experiment, cells were harvested using Trypsin/EDTA (0.05% and 0.02%) in PBS, centrifuged and resuspended with culture medium. For cell counting, a Countesse automated cell counter (Invitrogen, Carlsbad, USA) was used. All in vitro binding and internalization studies were performed using live cells seeded 1 day prior to the experiment. For IC50 determination, 150,000 cells/mL were transferred to 24-well plates (1 mL/well), and for internalization studies, 125,000 cells/mL were transferred into PLL-coated 24-well plates.
Internalization studies: The culture medium was removed, and the cells were washed once with 500 μL DMEM-F12 (5% BSA) before being left to equilibrate in 200 μL DMEM-F12 (5% BSA) at 37°C for a minimum of 15 min. Then, 25 μL (per well) of either DMEM-F12 (5% BSA) or of a 100-μM PMPA solution (blocking) was added, followed by the addition of 25 μL of ^68Ga/^177Lu-labelled PSMA ligand. The final radioligand concentration was 0.2/0.5 nM in all internalization assays. To determine internalization kinetics, cells were then incubated at 37°C for 5, 15, 30 and 60 min, respectively. Experiments were carried out in triplicate for each time point (control and blocking). Incubation was terminated by placing the plate on ice for approximately 1 min and by subsequent removal of the incubation medium. Cells were thoroughly rinsed with 250 μL of PBS. The wash medium was combined with the supernatant of the previous step. This fraction represents the amount of free radioligand. To remove receptor surface bound radioactivity, the cells were then incubated for 10 min with 250 μL of ice cold PMPA solution (10 μM in PBS). After removal of the supernatant, the cells were thoroughly rinsed with another 250 μL of ice cold PBS. Both fractions were combined. The internalized activity was released by incubation with 250 μL of 1 N NaOH, transferred to vials and combined with 250 μL of 1 N NaOH used for rinsing the wells. Quantification of the amount of free, PMPA-releasable and internalized activity was performed in a γ-counter.
The cellular uptake and internalization kinetics of the different ^68Ga- and ^177Lu-labelled PSMA ligands was determined using PSMA-expressing LNCaP cells. In the case of the ^68Ga-labelled compounds, the final peptide concentration in the assays was 0.2 nM. […] All internalization studies were accompanied by reference studies using ([^125I]I-BA)KuE (c = 0.2 nM). This experimental setup allows data normalization and eliminates the influence of cell count and cell viability on absolute cellular tracer uptake. […] Furthermore, to be able to discriminate between total cellular activity (sum of membrane associated and internalized activity) and internalized activity, all incubations were followed by a washing step with 10 μM PMPA at 4°C to remove specifically cell-surface bound radioligand by displacement.

[2] = Determination of lipophilicity (shake flask, n-octanol/PBS); type: physicochemical; conditions: n-octanol/PBS; listed for 11/12 but determined for the FFK analogue 11 only (footnote a)
Protocol: To a solution of 0.5 to 1 MBq of radiolabelled peptide in 500 μl of phosphate-buffered saline (PBS, pH 7.4), 500 μl of n-octanol was added (n = 6). Vials were vortexed vigorously for 3 min. To achieve quantitative phase separation, the vials were centrifuged at 6,000 g for 5 min in a Biofuge 15 (Heraeus Sepatech, Osterode, Germany). The activity concentrations in 100 μl-samples of both the aqueous and the organic phase were measured in a γ-counter. Both the partition coefficient P(o/w), which is defined as the molar concentration ratio of a single species A between n-octanol and water at equilibrium, and logP(o/w), which is an important parameter used to characterize lipophilicity of a compound, were calculated.
The partition coefficient logP between n-octanol and PBS was determined for the compounds listed in Table 3 using the shake flask method. All compounds are highly hydrophilic, with the DOTAGA compounds being up to one order of magnitude more hydrophilic than the corresponding DOTA analogues. Amongst all compounds tested, [^68Ga]HBED-CC-Ahx-KuE was the most hydrophilic compound.

[3] = In vivo metabolite analysis by radio-HPLC; conditions: CD-1 nu/nu mice, 0.5 h p.i.
Protocol: ^177Lu-10 and ^177Lu-11 were incubated in 80 μL of human serum (37°C) and 80 μL 0.4 M DTPA solution (RT), respectively and after 1, 24 and 48 h, the stability was determined by TLC analysis. The ^68Ga-labelled tracers (40 to 45 MBq) were injected into the tail vein of CD-1 nu/nu mice. The animals were sacrificed after 30 min, and urine, blood and kidney samples were taken. The kidney was frozen in liquid nitrogen, homogenized with a ball mill and extracted with 0.2 to 1 mL PBS containing 200 nmol 2-(phosphonomethyl)pentane-1,5-dioic acid (PMPA). The suspension was first centrifuged (15,000 g), and after ultrafiltration, the extracts were analysed by RP-HPLC. The blood samples were centrifuged to separate the plasma from the blood cells. Plasma proteins were removed by precipitation with acetonitrile (10 min, 4°C) and subsequent centrifugation and ultrafiltration. The blood extract was also analysed by RP-HPLC.
To investigate the influence of the amino acid composition of the spacer (KFF vs kff) on the metabolic stability in vivo, tissue homogenates and body fluids of mice injected with ^68Ga-11 and ^68Ga-12 were analysed by radio-HPLC. Extraction efficiencies from the blood and from the kidney were 56% and 43% for ^68Ga-11 and 61% and 62% for ^68Ga-12, respectively.

[^68Ga]DOTAGA-ffk(Sub-KuE) [^68Ga-12]
Kidney accumulation (LNCaP tumour xenograft): 96 ± 45 % ID/g
Tracer uptake into liver (LNCaP tumour xenograft): 0.2 ± 0.04 % ID/g
Tracer uptake into lung (LNCaP tumour xenograft): 1.1 ± 0.3 % ID/g
Tracer uptake into pancreas (LNCaP tumour xenograft): 0.4 ± 0.1 % ID/g
Tracer uptake into spleen (LNCaP tumour xenograft): 5.5 ± 0.2 % ID/g
Tumour-to-blood ratio (LNCaP tumour xenograft): 17.0 ± 0.5
Tumour-to-skeletal muscle ratio (LNCaP tumour xenograft): 19.8 ± 0.7
Uptake in gastrointestinal tract (LNCaP tumour xenograft): < 0.5 % ID/g
Uptake into LNCaP tumour xenograft (LNCaP tumour xenograft): 5.2 ± 1.2 % ID/g
Internalization (1 h) in % of ([125I]I-BA)KuE [1]: 42.5 ± 1.7%
log P (o/w) [2]: −3.6 ± 0.1
Intact tracer in blood [3]: 100%
